Results reported in PubChem BioAssay (NCI).
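Grown in 96-well plates, cells were treated for 48 hours with each compound at five concentrations. Insufficient inhibition: endpoint recorded as highest concentration tested. GI50 is the concentration that inhibits growth by half. TGI: concentration producing complete growth inhibition.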

Legend:
Test in all cases: DTP human tumour cell line panel, 48 h
[1] = tested on: NCI-H522 lung
[2] = tested on: SK-OV-3 ovarian
[3] = tested on: CAKI-1 renal
[4] = tested on: OVCAR-4 ovarian
[5] = tested on: T-47D breast
[6] = tested on: HOP-62 NSCLC
[7] = tested on: A498 renal
[8] = tested on: SF-295 CNS
[9] = tested on: LOX IMVI melanoma
[10] = tested on: MCF7 breast
[11] = tested on: OVCAR-8 ovarian
[12] = tested on: TK-10 renal
[13] = tested on: SF-268 CNS
[14] = tested on: EKVX NSCLC
[15] = tested on: RXF 393 renal
[16] = tested on: IGROV1 ovarian
[17] = tested on: HCT-15 colon
[18] = tested on: OVCAR-5 ovarian
[19] = tested on: ACHN renal
[20] = tested on: NCI-H226 lung
[21] = tested on: NCI-H460 lung
[22] = tested on: NCI/ADR-RES ovarian
[23] = tested on: UACC-257 melanoma
[24] = tested on: UO-31 renal
[25] = tested on: SW-620 colon
[26] = tested on: A549 NSCLC
[27] = tested on: OVCAR-3 ovarian
[28] = tested on: SK-MEL-5 melanoma
[29] = tested on: SNB-75 CNS
[30] = tested on: NCI-H23 lung
[31] = tested on: MALME-3M melanoma
[32] = tested on: KM12 colon
[33] = tested on: HCC-2998 colon
[34] = tested on: SK-MEL-28 melanoma
[35] = tested on: HT29 colon
[36] = tested on: SF-539 CNS
[37] = tested on: MDA-MB-435
[38] = tested on: DU-145 prostate
[39] = tested on: HS 578T breast
[40] = tested on: U251 CNS
[41] = tested on: COLO 205 colon
[42] = tested on: SK-MEL-2 melanoma
[43] = tested on: M14 melanoma
[44] = tested on: HOP-92 NSCLC
[45] = tested on: SNB-19 CNS
[46] = tested on: PC-3 prostate
[47] = tested on: SR leukemia
[48] = tested on: BT-549 breast
[49] = tested on: UACC-62 melanoma
[50] = tested on: HL-60(TB) leukemia
[51] = tested on: MOLT-4 leukemia
[52] = tested on: 786-0 renal
[53] = tested on: K-562 leukemia
[54] = tested on: SN12C renal
[55] = tested on: CCRF-CEM leukemia
[56] = tested on: MDA-MB-231 breast

For `C[C@@H]1CCN(C(=O)CC#N)C[C@@H]1N(C)c1ncnc2[nH]ccc12`, the GI50 [1] was > 100 µM, the TGI [1] was > 100 µM and the GI50 [2] was 90.9 µM. For the same molecule, the TGI [2] was > 100 µM, the GI50 [3] was 42.1 µM and the TGI [3] was > 100 µM. For the same molecule, the GI50 [4] was > 100 µM, the TGI [4] was > 100 µM and the GI50 [5] was > 100 µM. For the same molecule, the TGI [5] was > 100 µM, the GI50 [6] was 40.6 µM and the TGI [6] was > 100 µM. For the same molecule, the GI50 [7] was 23.3 µM, the TGI [7] was > 100 µM and the GI50 [8] was > 100 µM. The TGI [8] was > 100 µM, the GI50 [9] was > 100 µM and the TGI [9] was > 100 µM. For the same molecule, the GI50 [10] was > 100 µM, the TGI [10] was > 100 µM and the GI50 [11] was > 100 µM. For the same molecule, the TGI [11] was > 100 µM, the GI50 [12] was 38.1 µM and the TGI [12] was > 100 µM. For the same molecule, the GI50 [13] was 73.1 µM, the TGI [13] was > 100 µM and the GI50 [14] was 17.6 µM. The TGI [14] was > 100 µM, the GI50 [15] was 16.3 µM and the TGI [15] was 85.3 µM. The GI50 [16] was 65.8 µM, the TGI [16] was > 100 µM and the GI50 [17] was > 100 µM. The TGI [17] was > 100 µM, the GI50 [18] was 27.4 µM and the TGI [18] was > 100 µM. For the same molecule, the GI50 [19] was 57.2 µM, the TGI [19] was > 100 µM and the GI50 [20] was 20.9 µM. The TGI [20] was > 100 µM, the GI50 [21] was > 100 µM and the TGI [21] was > 100 µM. The GI50 [22] was > 100 µM, the TGI [22] was > 100 µM and the GI50 [23] was > 100 µM. For the same molecule, the TGI [23] was > 100 µM, the GI50 [24] was 31.3 µM and the TGI [24] was > 100 µM. The GI50 [25] was > 100 µM, the TGI [25] was > 100 µM and the GI50 [26] was > 100 µM. The TGI [26] was > 100 µM, the GI50 [27] was > 100 µM and the TGI [27] was > 100 µM. For the same molecule, the GI50 [28] was > 100 µM, the TGI [28] was > 100 µM and the GI50 [29] was 12.9 µM. The TGI [29] was 84.5 µM, the GI50 [30] was > 100 µM and the TGI [30] was > 100 µM. For the same molecule, the GI50 [31] was 82.5 µM, the TGI [31] was > 100 µM and the GI50 [32] was 34 µM. For the same molecule, the TGI [32] was > 100 µM, the GI50 [33] was > 100 µM and the TGI [33] was > 100 µM. For the same molecule, the GI50 [34] was 62.6 µM, the TGI [34] was > 100 µM and the GI50 [35] was > 100 µM. The TGI [35] was > 100 µM, the GI50 [36] was 39.3 µM and the TGI [36] was > 100 µM. For the same molecule, the GI50 [37] was > 100 µM, the TGI [37] was > 100 µM and the GI50 [38] was > 100 µM. For the same molecule, the TGI [38] was > 100 µM, the GI50 [39] was 30.4 µM and the TGI [39] was > 100 µM. For the same molecule, the GI50 [40] was > 100 µM, the TGI [40] was > 100 µM and the GI50 [41] was > 100 µM. The TGI [41] was > 100 µM, the GI50 [42] was > 100 µM and the TGI [42] was > 100 µM.
With `Clc1cc(Cl)cc(N2N=C(c3cccc(Nc4ccncc4)c3)CC2c2ccc(Br)cc2)c1` (stereo not drawn) the GI50 [1] was 1.88 µM, the TGI [1] was 3.88 µM and the GI50 [2] was 2.01 µM. The TGI [2] was 4.11 µM, the GI50 [43] was 1.8 µM and the TGI [43] was 3.63 µM. For the same molecule, the GI50 [3] was 1.54 µM, the TGI [3] was 2.91 µM and the GI50 [44] was 1.48 µM. It also gave a TGI [44] of 2.94 µM, a GI50 [4] of 1.6 µM and a TGI [4] of 2.96 µM. It also gave a GI50 [45] of 1.63 µM, a TGI [45] of 3.16 µM and a GI50 [46] of 1.66 µM. For the same molecule, the TGI [46] was 3.31 µM, the GI50 [7] was 1.08 µM and the TGI [7] was 2.3 µM. For the same molecule, the GI50 [8] was 1.79 µM, the TGI [8] was 3.2 µM and the GI50 [9] was 1.7 µM. It also gave a TGI [9] of 3.06 µM, a GI50 [11] of 2.16 µM and a TGI [11] of 4.87 µM. The GI50 [12] was 1.86 µM, the TGI [12] was 3.6 µM and the GI50 [13] was 1.76 µM. For the same molecule, the TGI [13] was 3.58 µM, the GI50 [47] was 1.48 µM and the TGI [47] was 3.68 µM. The GI50 [14] was 1.6 µM, the TGI [14] was 3.2 µM and the GI50 [48] was 1.94 µM. For the same molecule, the TGI [48] was 3.72 µM, the GI50 [16] was 1.74 µM and the TGI [16] was 3.3 µM. It also gave a GI50 [49] of 1.68 µM, a TGI [49] of 3.13 µM and a GI50 [17] of 1.8 µM. It also gave a TGI [17] of 3.49 µM, a GI50 [50] of 2.44 µM and a TGI [50] of 6.08 µM. For the same molecule, the GI50 [18] was 1.55 µM, the TGI [18] was 2.92 µM and the GI50 [19] was 1.66 µM. It also gave a TGI [19] of 3.02 µM, a GI50 [21] of 1.81 µM and a TGI [21] of 3.51 µM. It also gave a GI50 [22] of 1.91 µM, a TGI [22] of 3.86 µM and a GI50 [23] of 1.92 µM. For the same molecule, the TGI [23] was 3.85 µM, the GI50 [24] was 1.39 µM and the TGI [24] was 2.69 µM. The GI50 [25] was 1.61 µM, the TGI [25] was 3.04 µM and the GI50 [27] was 1.72 µM. It also gave a TGI [27] of 3.21 µM, a GI50 [28] of 1.81 µM and a TGI [28] of 3.26 µM. For the same molecule, the GI50 [29] was 1.42 µM, the TGI [29] was 2.98 µM and the GI50 [30] was 1.79 µM. The TGI [30] was 3.41 µM, the GI50 [51] was 1.95 µM and the TGI [51] was 4.44 µM. For the same molecule, the GI50 [52] was 1.74 µM, the TGI [52] was 3.32 µM and the GI50 [31] was 1.71 µM. The TGI [31] was 3.5 µM, the GI50 [53] was 2.26 µM and the TGI [53] was 5.69 µM. It also gave a GI50 [32] of 1.69 µM, a TGI [32] of 3.18 µM and a GI50 [33] of 1.77 µM. For the same molecule, the TGI [33] was 3.2 µM, the GI50 [34] was 1.83 µM and the TGI [34] was 3.37 µM. The GI50 [35] was 1.87 µM, the TGI [35] was 3.66 µM and the GI50 [54] was 1.67 µM. The TGI [54] was 3.11 µM, the GI50 [36] was 1.7 µM and the TGI [36] was 3.12 µM. For the same molecule, the GI50 [55] was 3.02 µM, the TGI [55] was 31.2 µM and the GI50 [37] was 1.61 µM. It also gave a TGI [37] of 3 µM, a GI50 [38] of 1.84 µM and a TGI [38] of 3.41 µM. It also gave a GI50 [56] of 1.51 µM, a TGI [56] of 2.91 µM and a GI50 [41] of 1.82 µM. For the same molecule, the TGI [41] was 3.86 µM.
